Columns and labels:
MGC-803 [1] = experiment: Antiproliferative activity against human MGC-803 cells assessed as reduction in cell viability after 24 hrs by MTT assay; format: functional, cell-based; details: MGC-803, 24 h
HGC-27 = experiment: Antiproliferative activity against human HGC-27 cells assessed as reduction in cell viability after 24 hrs by MTT assay; format: functional, cell-based; details: HGC-27, 24 h
GES1 = experiment: Antiproliferative activity against human GES1 cells assessed as reduction in cell viability after 24 hrs by MTT assay; format: functional, cell-based; details: GES1, 24 h
MGC-803 [2] = experiment: Antitumor activity against human MGC-803 cells xenografted in immunodeficient nude mouse assessed as tumor weight at 10 mg/kg, ip administered for 3 weeks (reference value: 157.8 mg); format: functional
MGC-803 [3] = experiment: Antitumor activity against human MGC-803 cells xenografted in immunodeficient nude mouse assessed as tumor volume at 10 mg/kg, ip administered for 3 weeks (reference value: 1039.6 mm3); format: functional
[4] = Toxicity in immunodeficient nude mouse xenografted with human MGC-803 cells assessed as reduction in body weight at 10 mg/kg, ip administered for 3 weeks relative to control; format: organism-based; parameters: scale not given: the % may be the effect or the level left; details: in vivo, 504 h

SMILES | IC50 (MGC-803 [1]) [µM] | IC50 (HGC-27) [µM] | IC50 (GES1) [µM] | Activity (MGC-803 [2]) [mg] | Activity (MGC-803 [3]) [mm3] | Activity [4] [%]
COc1cc2c(cc1Cc1nccc3cc4c(cc13)OCO4)OCO2 | > 150 | 122 | > 150 | – | – | –
O=c1c2c3c(ccc2cc2n1CCc1cc4c(cc1-2)OCO4)OCO3 | 61.5 | 54.6 | > 150 | – | – | –
O=c1[nH]cc(F)c(=O)[nH]1 [FLUOROURACIL] | 28.6 | 45.2 | 49.6 | 157.8 | 375.4 | 14.2
c1cc2c(c3c1CC1c4cc5c(cc4CCN1C3)OCO5)OCO2 (stereo not drawn) | 107 | 55.1 | > 150 | – | – | –
COc1cc2c(cc1OC)C1Cc3ccc4c(c3CN1CC2)OCO4 (stereo not drawn) | 94.3 | 81 | > 150 | – | – | –
COc1cc2c(cc1C(=O)c1nccc3cc4c(cc13)OCO4)OCO2 | 7.8 | 9.3 | 76 | – | – | –
O=C1NCCc2cc3c(cc21)OCO3 [NOROXYHYDRASTININE] | > 150 | 120 | > 150 | – | – | –
CN1CCc2cc3c(cc2[C@H]1[C@H]1OC(=O)c2c1ccc1c2OCO1)OCO3 | > 150 | 100 | > 150 | – | – | –
CCOC(=O)c1c(C(=O)c2nccc3cc4c(cc23)OCO4)ccc2c1OCO2 | 76 | 66.1 | 147 | – | – | –
COc1ccc2c(c1OC)CN(C)CCc1cc3c(cc1C(=O)C2)OCO3 [ALLOCRYPTOPINE] | 109 | 97.8 | > 150 | – | – | –
COc1cc2c(cc1O)C1Cc3ccc4c(c3CN1CC2)OCO4 (stereo not drawn) [CHEILANTHIFOLINE] | 83.2 | 38.3 | 114 | – | – | –
CN1CCc2cc3c(cc2C(=O)Cc2ccc4c(c2C1)OCO4)OCO3 | 94.5 | 121 | > 150 | – | – | –
CC(=O)c1ccc2c(c1Cn1ccc3cc4c(cc3c1=O)OCO4)OCO2 | 79.9 | 53.8 | 137 | – | – | –
COc1cc(/C=C/C(=O)NCCc2ccc(O)cc2)ccc1O [N-TRANS-FERULOYL TYRAMINE] | 98.3 | 84.5 | > 150 | – | – | –
COc1cc2c(cc1O)[C@@H]1Cc3ccc(OC)c(O)c3CN1CC2 [SCOULERINE] | 12.6 | 6.1 | 95.3 | – | – | –

Reference: ChEMBL document CHEMBL5143625, “Isolation, synthesis and bioactivity evaluation of isoquinoline alkaloids from Corydalis hendersonii Hemsl. against gastric cancer in vitro and in vivo” (Bioorg Med Chem, 2022)
